The results in this text go back to ChEMBL document CHEMBL3639064, “Piperazine compound capable of inhibiting prostaglandin D synthase” (2014).

The target in this test is Hematopoietic prostaglandin D synthase (Homo sapiens, UniProt O60760). The experiment in a line: Inhibition Assay: The test was carried out according to the method of Urade, Y. et al. (J. Biol. Chem., 262, 3820-3825, (1987)). More specifically, the reaction mixture (49 uL) containing 100 mM Tris-HCl (pH 8.0), 1 mM reduced glutathione, 0.1 mg/mL gamma-globulin, and human H-PGDS (q.s.), and a compound (final concentration: 0.01-100 uM) was preincubated at 25 C. for 5 minutes. Note that a DMSO solution (final concentration: 1%) was added to the solvent control group. Subsequently, 1 uL of [14C] prostaglandin H2 (final concentration: 10 uM) was added to start the reaction. One minute after the start of the reaction, 250 uL of a reaction stopper solution (diethylether/methanol/1 M citric acid (30/4/1) at a temperature of -20 C. was added to stop the reaction. After the reaction was stopped, 50 uL of the upper layer portion (organic solvent phase) was applied to a TLC plate and developed at -20 C. for 45 minutes.
Hematopoietic prostaglandin D synthase, sequence (O60760 whole entry): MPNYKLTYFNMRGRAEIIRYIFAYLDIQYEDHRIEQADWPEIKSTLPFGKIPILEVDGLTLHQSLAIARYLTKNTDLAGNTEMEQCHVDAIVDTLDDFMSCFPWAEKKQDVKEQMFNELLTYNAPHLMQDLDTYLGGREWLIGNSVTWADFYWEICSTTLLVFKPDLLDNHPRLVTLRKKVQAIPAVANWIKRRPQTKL

SMILES strings stand for the structures.

By IC50 is commonly meant the concentration that gives 50% inhibition. As for `Cn1cccc1C(=O)N1CCN(C(=O)Nc2ccc(N3CCC(CCn4ccnn4)CC3)cc2)CC1`, the half-maximal inhibitory concentration (IC50) was found to be 71 nM.

For `Cn1cccc1C(=O)N1CCN(C(=O)Nc2ccc(N3CCC(CN4CCOCC4)CC3)cc2)CC1`, the IC50 turned out to be 54 nM.

On to `Cn1cccc1C(=O)N1CCN(C(=O)Nc2ccc(N3CCC(CCn4cncn4)C3)cc2)CC1` (stereo unspecified), for which the IC50 is 67 nM.

For `Cn1cccc1C(=O)N1CCN(C(=O)Nc2ccc(N3CCC(CCN4CCOCC4)CC3)cc2)CC1`, the 50% inhibitory concentration (IC50) is 43 nM.

Turning to `Cc1nc(C)n(CCC2CCN(c3ccc(NC(=O)N4CCN(C(=O)c5cccn5C)CC4)cc3)CC2)n1`, the IC50 came out at 85 nM.

On to `Cn1cccc1C(=O)N1CCN(C(=O)Nc2ccc(N3CCC(CCn4cccn4)CC3)cc2)CC1`, for which the IC50 worked out at 40 nM.

Regarding `Cn1cccc1C(=O)N1CCN(C(=O)Nc2ccc(N3CCC(CCCn4ccnn4)CC3)cc2)CC1`, the IC50 was 37 nM.

`Cn1cccc1C(=O)N1CCN(C(=O)Nc2ccc(N3CCC(C(=O)N4CCCCC4)CC3)cc2)CC1`: the concentration for half-maximal inhibition (IC50) came out at 32 nM.

On to `CN1CCN(C(=O)C2CCN(c3ccc(NC(=O)N4CCN(C(=O)c5cccn5C)CC4)cc3)CC2)CC1`, for which the half-inhibitory concentration (IC50) was 60 nM.

With `Cn1cccc1C(=O)N1CCN(C(=O)Nc2ccc(N3CCC(C(=O)NCCN4CCOCC4)CC3)cc2)CC1`, the half-maximal inhibitory concentration (IC50) was found to be 59 nM.

With `Cn1cccc1C(=O)N1CCN(C(=O)Nc2ccc(N3CCC(C(=O)NCc4cccnc4)CC3)cc2)CC1`, the half-inhibitory concentration (IC50) amounted to 60 nM.
